Measured values published in US10695433B2, “Pyrrolobenzodiazepine-antibody conjugates” (MEDIMMUNE LIMITED, priority 2012, dated 2020).

System: K562 human chronic myeloid leukaemia cells
Test: K562 assay (MTT cytotoxicity of released compounds)
Format: cell-based
Conditions: drug for 1 hour or 96 hours, MTT readout
Method: K562 human chronic myeloid leukaemia cells were maintained in RPM1 1640 medium supplemented with 10% fetal calf serum and 2 mM glutamine at 37° C. in a humidified atmosphere containing 5% CO2 and were incubated with a specified dose of drug for 1 hour or 96 hours at 37° C. in the dark. The incubation was terminated by centrifugation (5 min, 300 g) and the cells were washed once with drug-free medium. Following the appropriate drug treatment, the cells were transferred to 96-well microtiter plates (10^4 cells per well, 8 wells per sample). Plates were then kept in the dark at 37° C. in a humidified atmosphere containing 5% CO2. The assay is based on the ability of viable cells to reduce a yellow soluble tetrazolium salt, 3-(4,5-dimethylthiazol-2-yl)-2,5-diphenyl-2H-tetrazolium bromide (MTT, Aldrich-Sigma), to an insoluble purple formazan precipitate. Following incubation of the plates for 4 days (to allow control cells to increase in number by approximately 10 fold), 20 μL of MTT solution (5 mg/mL in phosphate-buffered saline) was added to each well and the plates further incubated for 5 h. The plates were then centrifuged for 5 min at 300 g and the bulk of the medium pipetted from the cell pellet leaving 10-20 μL per well. […] The optical density was then read at a wavelength of 550 nm on a Titertek Multiscan ELISA plate reader, and a dose-response curve was constructed.

Q: With `COc1cc2c(cc1OCCCCCOc1cc3c(cc1OC)C(=O)N1C=C(C)C[C@H]1C=N3)N=C[C@@H]1CC(C)=CN1C2=O` [RelE] as the compound, how does the IC50 read?
A: 0.425 nM
